Test results reported in US11712426B2, “Metallo-liothyronine” (Synthonics, Inc., priority 2018, dated 2023).

What was measured:
[1] = cited from earlier work; for pKa 1 / pKa 2 / pKa 3: Table 1; for pKa of the carboxylic acid(s): carboxylic acid / COOH group
[2] = physchem
[3] = plasma profiles of Na(HT3), Zn(HT3)2 and [Zn(T3)]n after oral administration (Example 11); format: in vivo, male Sprague Dawley rats; details: for Cmax average / AUC average / FWHM average (Full Width at Half Maximum): PO capsule; for Cmax average: D = duodenum targeting (Eudragit L100-55) for Zn compounds, S = stomach (uncoated gel cap) for Na(HT3); for AUC average / FWHM average (Full Width at Half Maximum): D for Zn compounds, S for Na(HT3)
Method: Duodenum targeting (D) is accomplished by hand coating caps with Eudragit L100-55 (Acryl-Eze, water solvent) designed to dissolve in the duodenum at pH ca. 5.5. Stomach targeting (S) is by using uncoated gel caps.
The Full Width at Half Maximum (FWHM), where Width is measured along the time axis, and Half Maximum is ½Cmax, is a parameter used to evaluate the degree of extended release of drug absorption.

[4] = in vivo; cited from earlier work
[5] = pH 5.0 and above; cited from earlier work

Structure (SMILES) | pKa 1 [1] | pKa 2 [1] | also measured
CC1(C)S[C@@H]2[C@H](NC(=O)[C@H](N)c3ccc(O)cc3)C(=O)N2[C@H]1C(=O)O [Amoxicillin] | 6.71 | 9.41 | pKa of the carboxylic acid(s) [1]: 6.71; pKa of the phenol ([1]; phenol group): 9.41
CO[C@@]1(NC(=O)C2SC(=C(C(N)=O)C(=O)O)S2)C(=O)N2C(C(=O)O)=C(CSc3nnnn3C)CS[C@@H]21 (stereo partly shown) [Cefotetan] | ca. 2 | ca. 3 | pKa of the carboxylic acid(s) [1]: 2-3
CN(C)[C@@H]1C(O)=C(C(N)=O)C(=O)[C@@]2(O)C(O)=C3C(=O)c4c(O)ccc(Cl)c4[C@@](C)(O)[C@H]3C[C@@H]12 [Chlortetracycline] | 3.33 | 7.55 | pKa 3 [1]: 9.33
CN1C[C@@H]2C[C@H]1CN2c1cc2c(cc1F)c(=O)c(C(=O)O)cn2C1CC1 [Danofloxacin] | 6.07 | 8.56 | 
CN(C)[C@@H]1C(O)=C(C(N)=O)C(=O)[C@@]2(O)C(O)=C3C(=O)c4c(O)ccc(Cl)c4[C@@H](O)[C@H]3C[C@@H]12 [Demeclocycline] | 3.37 | 7.36 | pKa 3 [1]: 9.44
CN1CCN(c2cc3c(cc2F)c(=O)c(C(=O)O)cn3-c2ccc(F)cc2)CC1 [Difloxacin] | 5.66 | 7.24 | 
C[C@H]1c2cccc(O)c2C(=O)C2=C(O)[C@]3(O)C(=O)C(C(N)=O)=C(O)[C@@H](N(C)C)[C@@H]3[C@@H](O)[C@@H]21 [Doxycycline] | 3.02 | 7.97 | pKa 3 [1]: 9.15
CCn1cc(C(=O)O)c(=O)c2cc(F)c(N3CCNCC3)nc21 [Enoxacin] | 6.00 | 8.50 | 
CCN1CCN(c2cc3c(cc2F)c(=O)c(C(=O)O)cn3C2CC2)CC1 [Enrofloxacin] | 3.85 | 6.19 | 
N[C@@H](Cc1cc(I)c(Oc2ccc(O)c(I)c2)c(I)c1)C(=O)O [Example T3, triiodothyronine] |  |  | pKa [2]: 8.94
CN1CCN(c2c(F)cc3c(=O)c(C(=O)O)cn(CCF)c3c2F)CC1 [Fleroxacin] | 5.46 | 8.00 | 
CN1CCN(c2c(F)cc3c(=O)c(C(=O)O)cn4c3c2OCN4C)CC1 [Marbofloxacin] | 5.69 | 8.02 | 
C=C1c2c(Cl)ccc(O)c2C(=O)C2=C(O)[C@]3(O)C(=O)C(C(N)=O)=C(O)[C@@H](N(C)C)[C@@H]3[C@@H](O)[C@H]12 [Meclocycline] | 4.05 | 6.87 | pKa 3 [1]: 9.59
CN(Cc1cnc2nc(N)nc(N)c2n1)c1ccc(C(=O)N[C@@H](CCC(=O)O)C(=O)O)cc1 [Methotrexate] | 4.8 |  | 
N[C@@H](Cc1cc(I)c(Oc2ccc(O)c(I)c2)c(I)c1)C(=O)[O-].[Na+] [Na(HT3)] |  |  | Cmax average [3]: 0.45 ng/mL; AUC average [3]: 3.71 ng·h/mL; FWHM average (Full Width at Half Maximum) [3]: 4.9 h
CC1COc2c(N3CCN(C)CC3)c(F)cc3c(=O)c(C(=O)O)cn1c23 (stereo not shown) [Ofloxacin] | 6.22 | 7.81 | 
CN(C)[C@@H]1C(O)=C(C(N)=O)C(=O)[C@@]2(O)C(O)=C3C(=O)c4c(O)cccc4[C@@](C)(O)[C@H]3[C@H](O)[C@@H]12 [Oxytetracycline] | 3.22 | 7.46 | pKa 3 [1]: 8.94
CCn1cc(C(=O)O)c(=O)c2cnc(N3CCNCC3)nc21 [Pipemidic acid] | 5.42 | 8.18 | 
O=C(O)c1cn(-c2ccc(F)cc2)c2cc(N3CCNCC3)c(F)cc2c1=O [Sarafloxacin] | 5.62 | 8.18 | 
CCCCC(=O)N(Cc1ccc(-c2ccccc2-c2nnn[nH]2)cc1)[C@H](C(=O)O)C(C)C [Valsartan] |  |  | bioavailability [4]: about 25%; in vitro dissolution [5]: complete and rapid
N[C@@H](Cc1cc(I)c(Oc2ccc(O)c(I)c2)c(I)c1)C(=O)[O-].N[C@@H](Cc1cc(I)c(Oc2ccc(O)c(I)c2)c(I)c1)C(=O)[O-].[Zn+2] [Zn(HT3)2, Bis-T3 Zinc] |  |  | AUC with respect to simulated Cytomel ([3]; PO): comparable AUC; Cmax with respect to simulated Cytomel ([3]; PO): blunted Cmax; Cmax average [3]: 0.24 ng/mL; AUC average [3]: 3.45 ng·h/mL; FWHM average (Full Width at Half Maximum) [3]: 16.6 h
